Key:
Format in all cases: biochemical
[1] = target: PIk3(h) (Homo sapiens, UniProt Q9H4B4); experiment: kinase panel activity, PIk3(h); settings: compound at 20 μM; vs reference with no compound
[2] = target: SAPK2b(h) (Homo sapiens, UniProt Q15759); experiment: kinase panel activity, SAPK2b(h); settings: compound at 20 μM; vs reference with no compound
[3] = target: NLK(h) (Homo sapiens, UniProt Q9UBE8); experiment: kinase panel activity, NLK(h); settings: compound at 20 μM; vs reference with no compound
[4] = target: SAPK2a(h) (Homo sapiens, UniProt Q16539); experiment: kinase panel activity, SAPK2a(h); settings: compound at 20 μM; vs reference with no compound
[5] = target: p70S6K(h) (Homo sapiens, UniProt P23443); experiment: kinase panel activity, p70S6K(h); settings: compound at 20 μM; vs reference with no compound
[6] = target: Rsk2(h) (Homo sapiens, UniProt P51812); experiment: kinase panel activity, Rsk2(h); settings: for percent activity of Rsk2(h): compound at 20 μM, vs reference with no compound
[7] = target: PAK4(h) (Homo sapiens, UniProt O96013); experiment: kinase panel activity, PAK4(h); settings: compound at 20 μM; vs reference with no compound
[8] = target: Flt1(h) (Homo sapiens, UniProt P17948); experiment: kinase panel activity, Flt1(h); settings: compound at 20 μM; vs reference with no compound
[9] = target: IR(h) (Homo sapiens, UniProt P06213); experiment: kinase panel activity, IR(h); settings: compound at 20 μM; vs reference with no compound
[10] = target: PKBγ(h) (Homo sapiens, UniProt Q9Y243); experiment: kinase panel activity, PKBγ(h)
[11] = target: CDK1/cyclinB(h) (Homo sapiens, UniProt P06493); experiment: kinase panel activity, CDK1/cyclinB(h); settings: compound at 20 μM; vs reference with no compound
[12] = target: JNK1α1(h) (Homo sapiens, UniProt P45983); experiment: kinase panel activity, JNK1α1(h); settings: compound at 20 μM; vs reference with no compound
[13] = target: IRAK1(h) (Homo sapiens, UniProt P51617); experiment: kinase panel activity, IRAK1(h); settings: compound at 20 μM; vs reference with no compound
[14] = target: Pim-2(h) (Homo sapiens, UniProt Q9P1W9); experiment: kinase panel activity, Pim-2(h); settings: compound at 20 μM; vs reference with no compound
[15] = target: GSK3α(h) (Homo sapiens, UniProt P49840); experiment: kinase panel activity, GSK3α(h); settings: compound at 20 μM; vs reference with no compound
[16] = target: CSK(h) (Homo sapiens, UniProt P41240); experiment: kinase panel activity, CSK(h); settings: compound at 20 μM; vs reference with no compound
[17] = target: MSK1(h) (Homo sapiens, UniProt O75582); experiment: kinase panel activity, MSK1(h); settings: compound at 20 μM; vs reference with no compound
[18] = target: PKCα(h) (Homo sapiens, UniProt P17252); experiment: kinase panel activity, PKCα(h); settings: compound at 20 μM; vs reference with no compound
[19] = target: NEK2(h) (Homo sapiens, UniProt P51955); experiment: kinase panel activity, NEK2(h); settings: compound at 20 μM; vs reference with no compound
[20] = target: TrkB(h) (Homo sapiens, UniProt Q16620); experiment: kinase panel activity, TrkB(h); settings: compound at 20 μM; vs reference with no compound
[21] = target: CDK9/cyclin T1(h) (Homo sapiens, UniProt P50750); experiment: kinase panel activity, CDK9/cyclin T1(h); settings: compound at 20 μM; vs reference with no compound
[22] = target: JNK2α2(h) (Homo sapiens, UniProt P45984); experiment: kinase panel activity, JNK2α2(h); settings: compound at 20 μM; vs reference with no compound
[23] = target: MAPK1(h) (Homo sapiens, UniProt P27361); experiment: kinase panel activity, MAPK1(h); settings: compound at 20 μM; vs reference with no compound
[24] = target: Ros(h) (Homo sapiens, UniProt P08922); experiment: kinase panel activity, Ros(h); settings: compound at 20 μM; vs reference with no compound
[25] = target: CDK2/cyclinA(h) (Homo sapiens, UniProt P24941); experiment: kinase panel activity, CDK2/cyclinA(h); settings: compound at 20 μM; vs reference with no compound
[26] = target: PKG1β(h) (Homo sapiens, UniProt Q13976); experiment: kinase panel activity, PKG1β(h); settings: compound at 20 μM; vs reference with no compound
[27] = target: Pim-1(h) (Homo sapiens, UniProt P11309); experiment: kinase panel activity, Pim-1(h); settings: compound at 20 μM; vs reference with no compound
[28] = target: Met(h) (Homo sapiens, UniProt P08581); experiment: kinase panel activity, Met(h); settings: compound at 20 μM; vs reference with no compound
[29] = target: FGFR1(h) (Homo sapiens, UniProt P11362); experiment: kinase panel activity, FGFR1(h); settings: compound at 20 μM; vs reference with no compound
[30] = target: PDK1(h) (Homo sapiens, UniProt O15530); experiment: kinase panel activity, PDK1(h); settings: compound at 20 μM; vs reference with no compound
[31] = target: PDGFRβ(h) (Homo sapiens, UniProt P09619); experiment: kinase panel activity, PDGFRβ(h); settings: compound at 20 μM; vs reference with no compound
[32] = target: PDGFRα(h) (Homo sapiens, UniProt P16234); experiment: kinase panel activity, PDGFRα(h); settings: compound at 20 μM; vs reference with no compound
[33] = target: EphB2(h) (Homo sapiens, UniProt P29323); experiment: kinase panel activity, EphB2(h); settings: compound at 20 μM; vs reference with no compound
[34] = target: SIK(h) (Homo sapiens, UniProt P57059); experiment: kinase panel activity, SIK(h); settings: compound at 20 μM; vs reference with no compound
[35] = target: IGF-1R(h) (Homo sapiens, UniProt P08069); experiment: kinase panel activity, IGF-1R(h); settings: compound at 20 μM; vs reference with no compound
[36] = target: EGFR(h) (Homo sapiens, UniProt P00533); experiment: kinase panel activity, EGFR(h); settings: compound at 20 μM; vs reference with no compound
[37] = target: ZAP-70(h) (Homo sapiens, UniProt P43403); experiment: kinase panel activity, ZAP-70(h); settings: compound at 20 μM; vs reference with no compound
[38] = target: MST1(h) (Homo sapiens, UniProt Q13043); experiment: kinase panel activity, MST1(h); settings: compound at 20 μM; vs reference with no compound
[39] = target: cSRC(h) (Homo sapiens, UniProt P12931); experiment: kinase panel activity, cSRC(h); settings: compound at 20 μM; vs reference with no compound
[40] = target: PKBα(h) (Homo sapiens, UniProt P31749); experiment: kinase panel activity, PKBα(h)
[41] = compound at 20 μM, vs reference with no compound

Chain of Rsk2(h) (P51812 whole entry): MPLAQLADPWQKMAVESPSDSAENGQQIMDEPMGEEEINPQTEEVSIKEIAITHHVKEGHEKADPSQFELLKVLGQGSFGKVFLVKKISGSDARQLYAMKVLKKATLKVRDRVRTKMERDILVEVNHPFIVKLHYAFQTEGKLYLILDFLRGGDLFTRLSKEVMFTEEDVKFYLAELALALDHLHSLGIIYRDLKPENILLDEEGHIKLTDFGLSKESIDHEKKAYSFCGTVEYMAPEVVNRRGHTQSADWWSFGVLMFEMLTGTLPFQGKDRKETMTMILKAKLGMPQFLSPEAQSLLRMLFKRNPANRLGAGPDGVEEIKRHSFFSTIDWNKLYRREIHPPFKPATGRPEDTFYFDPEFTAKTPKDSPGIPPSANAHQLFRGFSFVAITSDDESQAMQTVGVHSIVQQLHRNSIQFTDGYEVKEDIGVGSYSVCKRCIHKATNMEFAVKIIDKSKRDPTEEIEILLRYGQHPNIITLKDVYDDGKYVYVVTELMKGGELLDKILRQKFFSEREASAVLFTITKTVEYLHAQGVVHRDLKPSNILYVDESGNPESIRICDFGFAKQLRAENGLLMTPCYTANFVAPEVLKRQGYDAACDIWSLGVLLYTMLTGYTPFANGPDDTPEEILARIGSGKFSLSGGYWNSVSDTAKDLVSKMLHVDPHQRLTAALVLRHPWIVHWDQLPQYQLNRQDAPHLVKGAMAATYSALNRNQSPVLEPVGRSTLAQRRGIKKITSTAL
Chain of PDGFRβ(h) (P09619 33-1106): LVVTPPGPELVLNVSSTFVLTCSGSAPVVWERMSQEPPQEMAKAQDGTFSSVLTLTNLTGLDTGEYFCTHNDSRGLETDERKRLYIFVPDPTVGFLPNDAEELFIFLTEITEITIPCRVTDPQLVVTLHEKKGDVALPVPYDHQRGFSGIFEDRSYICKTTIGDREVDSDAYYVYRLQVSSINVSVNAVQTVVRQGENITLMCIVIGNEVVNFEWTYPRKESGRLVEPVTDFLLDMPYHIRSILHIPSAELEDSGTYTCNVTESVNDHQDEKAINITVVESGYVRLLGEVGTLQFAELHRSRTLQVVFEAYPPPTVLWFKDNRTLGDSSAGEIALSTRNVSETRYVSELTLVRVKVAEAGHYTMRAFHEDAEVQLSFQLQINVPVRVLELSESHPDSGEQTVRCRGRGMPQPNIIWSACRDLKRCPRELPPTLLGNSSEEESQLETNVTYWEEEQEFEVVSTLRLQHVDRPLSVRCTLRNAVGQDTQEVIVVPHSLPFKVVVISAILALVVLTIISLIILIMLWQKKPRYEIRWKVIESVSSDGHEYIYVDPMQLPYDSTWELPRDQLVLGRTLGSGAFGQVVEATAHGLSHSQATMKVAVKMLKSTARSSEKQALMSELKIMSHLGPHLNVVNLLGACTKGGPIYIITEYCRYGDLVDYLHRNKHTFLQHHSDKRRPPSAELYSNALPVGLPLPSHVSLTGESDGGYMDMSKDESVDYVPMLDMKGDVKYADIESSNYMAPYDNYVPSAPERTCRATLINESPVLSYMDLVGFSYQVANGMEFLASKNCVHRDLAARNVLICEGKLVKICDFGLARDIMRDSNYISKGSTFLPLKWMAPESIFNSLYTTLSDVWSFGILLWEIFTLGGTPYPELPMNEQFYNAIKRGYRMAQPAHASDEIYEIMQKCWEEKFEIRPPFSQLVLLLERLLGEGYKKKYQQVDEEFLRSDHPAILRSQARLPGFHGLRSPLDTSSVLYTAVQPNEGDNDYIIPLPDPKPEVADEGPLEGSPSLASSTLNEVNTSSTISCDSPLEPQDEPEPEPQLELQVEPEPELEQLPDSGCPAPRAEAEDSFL
Chain of MST1(h) (Q13043 whole entry): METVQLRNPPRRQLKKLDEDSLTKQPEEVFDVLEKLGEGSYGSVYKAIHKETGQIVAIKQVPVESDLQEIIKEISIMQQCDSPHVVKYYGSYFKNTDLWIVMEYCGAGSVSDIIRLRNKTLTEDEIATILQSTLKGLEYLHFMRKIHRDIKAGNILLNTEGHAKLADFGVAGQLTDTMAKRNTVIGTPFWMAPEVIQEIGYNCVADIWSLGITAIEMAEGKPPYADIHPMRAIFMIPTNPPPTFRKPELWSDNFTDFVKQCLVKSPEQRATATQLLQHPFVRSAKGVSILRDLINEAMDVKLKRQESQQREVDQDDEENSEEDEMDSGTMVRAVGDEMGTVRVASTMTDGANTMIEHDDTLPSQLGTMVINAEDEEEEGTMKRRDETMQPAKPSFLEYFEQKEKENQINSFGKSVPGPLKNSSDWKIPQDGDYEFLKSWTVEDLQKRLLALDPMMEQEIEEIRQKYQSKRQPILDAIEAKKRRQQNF
Chain of Ros(h) (P08922 28-2347): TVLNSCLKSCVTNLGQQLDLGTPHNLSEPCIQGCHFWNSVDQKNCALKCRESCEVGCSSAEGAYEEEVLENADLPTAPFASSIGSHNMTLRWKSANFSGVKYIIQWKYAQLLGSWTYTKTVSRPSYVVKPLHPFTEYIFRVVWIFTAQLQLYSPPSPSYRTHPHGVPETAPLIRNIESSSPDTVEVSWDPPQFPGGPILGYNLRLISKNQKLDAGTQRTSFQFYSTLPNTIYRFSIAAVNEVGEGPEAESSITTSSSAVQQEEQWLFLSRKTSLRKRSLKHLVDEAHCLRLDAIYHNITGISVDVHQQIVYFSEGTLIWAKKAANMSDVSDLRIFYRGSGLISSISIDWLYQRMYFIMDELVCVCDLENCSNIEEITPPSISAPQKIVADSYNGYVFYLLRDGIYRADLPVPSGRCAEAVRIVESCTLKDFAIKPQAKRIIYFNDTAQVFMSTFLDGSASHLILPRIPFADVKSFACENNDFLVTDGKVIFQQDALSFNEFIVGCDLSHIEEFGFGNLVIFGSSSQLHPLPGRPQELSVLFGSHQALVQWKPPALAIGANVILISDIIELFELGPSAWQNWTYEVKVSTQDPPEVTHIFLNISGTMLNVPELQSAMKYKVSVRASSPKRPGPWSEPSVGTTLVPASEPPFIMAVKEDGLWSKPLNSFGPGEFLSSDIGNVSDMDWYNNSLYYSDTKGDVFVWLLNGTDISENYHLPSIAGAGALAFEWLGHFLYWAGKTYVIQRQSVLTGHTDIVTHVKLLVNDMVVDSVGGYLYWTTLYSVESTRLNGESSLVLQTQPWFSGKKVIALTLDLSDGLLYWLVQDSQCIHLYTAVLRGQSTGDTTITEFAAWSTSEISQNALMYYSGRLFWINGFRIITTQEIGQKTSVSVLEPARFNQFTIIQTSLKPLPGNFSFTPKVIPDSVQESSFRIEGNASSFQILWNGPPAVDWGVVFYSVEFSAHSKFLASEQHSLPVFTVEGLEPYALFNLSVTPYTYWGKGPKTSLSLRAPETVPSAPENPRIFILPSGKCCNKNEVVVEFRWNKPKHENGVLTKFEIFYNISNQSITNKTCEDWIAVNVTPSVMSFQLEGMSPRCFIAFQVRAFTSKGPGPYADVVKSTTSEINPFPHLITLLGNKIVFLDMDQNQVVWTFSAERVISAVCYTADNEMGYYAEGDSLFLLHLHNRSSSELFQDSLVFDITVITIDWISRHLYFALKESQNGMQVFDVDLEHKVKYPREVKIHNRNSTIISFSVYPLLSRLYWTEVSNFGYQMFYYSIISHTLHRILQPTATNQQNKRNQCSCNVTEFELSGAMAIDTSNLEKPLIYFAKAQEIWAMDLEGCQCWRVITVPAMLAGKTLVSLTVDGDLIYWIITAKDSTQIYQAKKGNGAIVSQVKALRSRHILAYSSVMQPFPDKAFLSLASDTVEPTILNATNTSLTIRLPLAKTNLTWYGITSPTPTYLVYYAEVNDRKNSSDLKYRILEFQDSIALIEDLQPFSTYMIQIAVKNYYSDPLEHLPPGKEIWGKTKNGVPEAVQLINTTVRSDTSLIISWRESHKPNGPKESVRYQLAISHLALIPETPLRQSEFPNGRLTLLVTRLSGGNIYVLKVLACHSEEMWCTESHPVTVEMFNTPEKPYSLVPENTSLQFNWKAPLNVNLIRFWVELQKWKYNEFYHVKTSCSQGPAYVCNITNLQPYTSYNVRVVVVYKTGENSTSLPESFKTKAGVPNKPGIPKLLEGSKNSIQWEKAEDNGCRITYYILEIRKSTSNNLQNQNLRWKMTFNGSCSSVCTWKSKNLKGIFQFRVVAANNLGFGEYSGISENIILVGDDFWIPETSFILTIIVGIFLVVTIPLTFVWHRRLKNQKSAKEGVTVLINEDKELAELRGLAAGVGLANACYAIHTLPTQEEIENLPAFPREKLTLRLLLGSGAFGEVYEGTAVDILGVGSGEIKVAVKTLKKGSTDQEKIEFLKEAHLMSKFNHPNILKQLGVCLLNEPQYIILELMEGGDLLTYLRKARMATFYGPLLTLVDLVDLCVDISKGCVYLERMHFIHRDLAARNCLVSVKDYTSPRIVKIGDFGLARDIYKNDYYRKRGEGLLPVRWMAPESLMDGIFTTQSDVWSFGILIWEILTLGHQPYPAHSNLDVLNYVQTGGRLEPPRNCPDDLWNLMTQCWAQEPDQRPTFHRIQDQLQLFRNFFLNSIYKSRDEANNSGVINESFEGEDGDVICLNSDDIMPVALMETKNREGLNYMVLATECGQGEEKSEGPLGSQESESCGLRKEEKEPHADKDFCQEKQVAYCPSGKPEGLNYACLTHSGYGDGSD
Chain of JNK1α1(h) (P45983 1-384 isoform P45983-2): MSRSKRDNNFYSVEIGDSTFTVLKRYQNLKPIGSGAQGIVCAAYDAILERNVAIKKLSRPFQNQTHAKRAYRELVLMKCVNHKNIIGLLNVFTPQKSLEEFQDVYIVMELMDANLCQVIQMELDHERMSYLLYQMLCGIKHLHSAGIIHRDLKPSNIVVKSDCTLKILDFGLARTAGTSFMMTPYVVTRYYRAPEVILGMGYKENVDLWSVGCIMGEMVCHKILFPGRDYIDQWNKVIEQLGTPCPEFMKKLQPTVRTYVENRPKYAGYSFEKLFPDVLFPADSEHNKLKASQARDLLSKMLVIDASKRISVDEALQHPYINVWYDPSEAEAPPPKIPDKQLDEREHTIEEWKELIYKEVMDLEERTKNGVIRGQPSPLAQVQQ

## O=C(O)[C@H]1O[C@@H](Oc2ccc(/C=C/c3cc(O)cc(O)c3)cc2)[C@H](O)[C@@H](O)[C@@H]1O [Res 4′-Gluc, resveratrol-4-glucuronide]
[1]
  percent activity of PIk3(h): 86%
[2]
  percent activity of SAPK2b(h): 111%
[3]
  percent activity of NLK(h): 99%
[4]
  percent activity of SAPK2a(h): 107%
[5]
  percent activity of p70S6K(h): 54%
[6]
  percent activity of Rsk2(h): 100%
[7]
  percent activity of PAK4(h): 107%
[8]
  percent activity of Flt1(h): 76%
[9]
  percent activity of IR(h): 80%
[10]; [41]
  percent activity of PKBγ(h): 101%
[11]
  percent activity of CDK1/cyclinB(h): 104%
[12]
  percent activity of JNK1α1(h): 91%
[13]
  percent activity of IRAK1(h): 100%
[14]
  percent activity of Pim-2(h): 76%
[15]
  percent activity of GSK3α(h): 57%
[16]
  percent activity of CSK(h): 100%
[17]
  percent activity of MSK1(h): 110%
[18]
  percent activity of PKCα(h): 100%
[19]
  percent activity of NEK2(h): 103%
[20]
  percent activity of TrkB(h): 100%
[21]
  percent activity of CDK9/cyclin T1(h): 105%
[22]
  percent activity of JNK2α2(h): 123%
[23]
  percent activity of MAPK1(h): 106%
[24]
  percent activity of Ros(h): 105%
[25]
  percent activity of CDK2/cyclinA(h): 98%
[26]
  percent activity of PKG1β(h): 58%
[27]
  percent activity of Pim-1(h): 31%
[28]
  percent activity of Met(h): 122%
[29]
  percent activity of FGFR1(h): 45%
[30]
  percent activity of PDK1(h): 97%
[31]
  percent activity of PDGFRβ(h): 119%
[32]
  percent activity of PDGFRα(h): 114%
[33]
  percent activity of EphB2(h): 109%
[34]
  percent activity of SIK(h): 74%
[35]
  percent activity of IGF-1R(h): 87%
[36]
  percent activity of EGFR(h): 106%
[37]
  percent activity of ZAP-70(h): 125%
[38]
  percent activity of MST1(h): 106%
[39]
  percent activity of cSRC(h): 54%
[40]; [41]
  percent activity of PKBα(h): 96%

## Oc1ccc(C=Cc2cc(O)cc(O)c2)cc1 [resveratrol, 3,5,4′-trihydroxystilbene]
[1]
  percent activity of PIk3(h): 95%
[2]
  percent activity of SAPK2b(h): 100%
[3]
  percent activity of NLK(h): 30%
[4]
  percent activity of SAPK2a(h): 100%
[5]
  percent activity of p70S6K(h): 21%
[6]
  inhibition at 20 µM: 68%
  percent activity of Rsk2(h): 32%
[7]
  percent activity of PAK4(h): 103%
[8]
  percent activity of Flt1(h): 52%
[9]
  percent activity of IR(h): 71%
[10]; read-out: percent activity of PKBγ(h)
  activity at 20 µM: 89%
[11]
  percent activity of CDK1/cyclinB(h): 67%
[12]
  percent activity of JNK1α1(h): 89%
[13]
  percent activity of IRAK1(h): 97%
[14]
  percent activity of Pim-2(h): 14%
[15]
  percent activity of GSK3α(h): 79%
[16]
  percent activity of CSK(h): 94%
[17]
  percent activity of MSK1(h): 58%
[18]
  percent activity of PKCα(h): 114%
[19]
  percent activity of NEK2(h): 102%
[20]
  percent activity of TrkB(h): 98%
[21]
  percent activity of CDK9/cyclin T1(h): 70%
[22]
  percent activity of JNK2α2(h): 110%
[23]
  percent activity of MAPK1(h): 94%
[24]
  percent activity of Ros(h): 102%
[25]
  percent activity of CDK2/cyclinA(h): 80%
[26]
  percent activity of PKG1β(h): 56%
[27]
  percent activity of Pim-1(h): 6%
[28]
  percent activity of Met(h): 114%
[29]
  percent activity of FGFR1(h): 58%
[30]
  percent activity of PDK1(h): 108%
[31]
  percent activity of PDGFRβ(h): 119%
[32]
  percent activity of PDGFRα(h): 114%
[33]
  percent activity of EphB2(h): 113%
[34]
  percent activity of SIK(h): 76%
[35]
  percent activity of IGF-1R(h): 75%
[36]
  percent activity of EGFR(h): 90%
[37]
  percent activity of ZAP-70(h): 141%
[38]
  percent activity of MST1(h): 75%
[39]
  percent activity of cSRC(h): 61%
[40]; read-out: percent activity of PKBα(h)
  activity at 20 µM: 94%

Source: patent publication US20100242139A1, “XENOHORMESIS BASED COMPOSITIONS AND METHODS” (President and Fellows of Harvard College, priority 2006, published 2010)
